# Measurements reported in ChEMBL document CHEMBL1128211, “3D-quantitative structure-activity relationships of human immunodeficiency virus type-1 proteinase inhibitors: comparative molecular field analysis of 2-heterosubstituted statine derivatives-implications for the design of novel inhibitors” (J Med Chem, 1995).
# Molecular target: Human immunodeficiency virus type 1 protease (Human immunodeficiency virus 1, UniProt Q72874)
# Assay: Inhibitory activity was determined against HIV type 1 protease
row,Ki [nM],SMILES
1,69.2,CC(C)(C)[C@H](NC(=O)OCc1ccccc1)C(=O)N[C@@H](Cc1ccccc1)[C@@H](O)[C@@H](NCc1ccc(OCCN2CCOCC2)cc1)C(=O)NCc1ccccc1
2,138,CC(C)[C@H](NC(=O)COc1ccccc1)C(=O)N[C@@H](Cc1ccccc1)[C@@H](O)[C@@H](NCc1ccccc1)C(=O)NCc1ccccc1
3,15.1,CC(C)[C@H](NC(=O)OCc1ccccc1)C(=O)N[C@@H](Cc1ccccc1)[C@@H](O)[C@@H](NCc1ccccc1)C(=O)N[C@H](C(=O)NCc1ccc(Br)cc1)C(C)C
4,10.5,COc1ccc(CN[C@@H](C(=O)N[C@H](C(=O)Nc2nc3ccccc3s2)C(C)C)[C@H](O)[C@H](Cc2ccccc2)NC(=O)[C@@H](NC(=O)OCc2ccccc2)C(C)C)cc1
5,8.91,CC(C)[C@H](NC(=O)OCc1ccccc1)C(=O)N[C@@H](Cc1ccccc1)[C@@H](O)[C@@H](Nc1ccc(-c2ccccc2)cc1)C(=O)N[C@H](C(=O)NCc1nc2ccccc2[nH]1)C(C)C
6,89.1,COc1ccc(CN[C@@H](C(=O)N[C@H](C(=O)NCc2nc3ccccc3[nH]2)c2ccccc2)[C@H](O)[C@@H](N)Cc2ccccc2)cc1
7,17,CC(C)[C@H](NC(=O)OCc1ccccc1)C(=O)N[C@@H](CCc1ccccc1)[C@@H](O)[C@@H](NCc1ccc(Cl)cc1)C(=O)N[C@H](C(=O)NCc1nc2ccccc2[nH]1)C(C)C
8,6.92,CC(C)[C@H](N)C(=O)C[C@@H](Cc1ccccc1)[C@@H](O)[C@H]1CCc2ccc(cc2)OCCOCCCOCCNC(=O)[C@H](C(C)C)CC1=O
9,417,CC(C)[C@H](NC(=O)[C@H](NCc1ccccc1)[C@H](O)[C@H](Cc1ccccc1)NC(=O)[C@@H](NC(=O)OC(C)(C)C)C(C)(C)C)C(=O)NCc1ccccc1
10,129,CC(C)(C)[C@H](NC(=O)OCc1ccccc1)C(=O)N[C@@H](Cc1ccccc1)[C@@H](O)[C@@H](NCc1ccc(OCCN2CCOCC2)cc1)C(=O)N[C@H](CO)c1ccccc1 (stereo in doubt; 283267)
11,26.9,CC(C)[C@H](NC(=O)[C@H](NCc1ccccc1)[C@H](O)[C@H](Cc1ccccc1)NC(=O)[C@@H](NC(=O)c1nc2c(F)cccc2[nH]1)C(C)(C)C)C(=O)NCc1ccccc1
12,8.91,COc1ccc(CN[C@@H](C(=O)N[C@H](C(=O)NCCc2nc3ccccc3[nH]2)C(C)C)[C@H](O)[C@H](Cc2ccccc2)NC(=O)[C@@H](NC(=O)OCc2ccccc2)C(C)C)cc1
13,15.8,COc1ccc(CN[C@@H](C(=O)N[C@H](C(=O)NCC2CCCCC2O)C(C)C)[C@H](O)[C@H](Cc2ccccc2)NC(=O)[C@@H](NC(=O)OCc2ccccc2)C(C)C)cc1 (some centres not stated)
14,9.55,COc1ccc(CN[C@@H](C(=O)N[C@H](C(=O)NCCNc2ccc([N+](=O)[O-])cn2)C(C)C)[C@H](O)[C@H](Cc2ccccc2)NC(=O)[C@@H](NC(=O)OCc2ccccc2)C(C)C)cc1
15,6.46,CC(C)[C@H](NC(=O)OCc1ccccc1)C(=O)N[C@@H](Cc1ccccc1)[C@@H](O)[C@@H](NCc1ccc(Cl)cc1)C(=O)N[C@H](C(=O)NCc1ccccn1)C(C)C
16,100,CC(C)(C)[C@H](NC(=O)OCc1ccccc1)C(=O)N[C@@H](Cc1ccccc1)[C@@H](O)[C@@H](NCc1ccc(OCCN2CCOCC2)cc1)C(=O)N[C@H](CO)c1ccccc1 (stereo in doubt; 283268)
17,4.07,CC(C)(C)[C@H](NC(=O)OCc1ccccc1)C(=O)N[C@@H](Cc1ccccc1)[C@@H](O)[C@@H](NCc1ccc(CNC(=O)CCc2nc3ccccc3[nH]2)cc1)C(=O)N[C@H]1c2ccccc2CC1O (some centres not stated)
18,7.08,CC(C)[C@H](NC(=O)OCc1ccccc1)C(=O)N[C@@H](Cc1ccccc1)[C@@H](O)[C@@H](NCc1cccnc1)C(=O)N[C@H](C(=O)NCc1ccccc1)C(C)C

row,Ki [nM],SMILES
1,14.5,CC(C)(C)[C@H](NC(=O)OCc1ccccc1)C(=O)N[C@@H](Cc1ccccc1)[C@@H](O)[C@@H](NCc1ccccc1)C(=O)N[C@H]1c2ccccc2CC1O (some centres not stated)
2,28.8,COc1ccc(CN[C@@H](C(=O)N[C@H](C(=O)NCCn2ccnc2)C(C)C)[C@H](O)[C@H](Cc2ccccc2)NC(=O)[C@@H](NC(=O)OCc2ccccc2)C(C)C)cc1
3,10,CC(C)(C)[C@H](NC(=O)OCc1ccccc1)C(=O)N[C@@H](Cc1ccccc1)[C@@H](O)[C@@H](NCc1ccc(CNC(=O)OCc2ccccc2)cc1)C(=O)N[C@H]1c2ccccc2CC1O (some centres not stated)
4,15.1,COc1ccc(CN[C@@H](C(=O)N[C@H](C(=O)NCc2nc3cc[nH]cc-3n2)C(C)C)[C@H](O)[C@H](Cc2ccccc2)NC(=O)OC(C)(C)C)cc1
5,14.1,COc1ccc(CN[C@@H](C(=O)N[C@H](C(=O)NCc2ccc(OC)cc2O)C(C)C)[C@H](O)[C@H](Cc2ccccc2)NC(=O)[C@@H](NC(=O)OCc2ccccc2)C(C)C)cc1
6,1290,COc1ccc(CN[C@@H](C(=O)NCCNCc2nc3ccccc3[nH]2)[C@H](O)[C@H](Cc2ccccc2)NC(=O)[C@@H](NC(=O)OCc2ccccc2)C(C)C)cc1
7,1910,CCOC(=O)[C@H](NCc1ccc(CNCc2ccccc2)cc1)[C@H](O)[C@H](Cc1ccccc1)NC(=O)[C@@H](NC(=O)OCc1ccccc1)C(C)C
8,11,CC(C)[C@H](NC(=O)OCc1ccccc1)C(=O)N[C@@H](Cc1ccccc1)[C@@H](O)[C@@H](NCc1ccccc1)C(=O)N[C@H](C(=O)NCc1ccncc1)C(C)C
9,19.1,COc1ccc(CN[C@@H](C(=O)N[C@H](C(=O)NCc2nc3ccccc3[nH]2)C(C)C)[C@H](O)[C@H](Cc2ccccc2)NC(=O)[C@@H](NC(=O)OCc2nc3cc[nH]cc-3n2)C(C)(C)C)cc1
10,4.17,COc1ccc(CN[C@@H](C(=O)N[C@H](C(=O)NCc2nc3cc[nH]cc-3n2)C(C)C)[C@H](O)[C@H](Cc2ccccc2)NC(=O)[C@@H](NC(=O)OCc2ccccc2)C(C)C)cc1
11,10,COc1ccc(CN[C@@H](C(=O)N[C@H](C(=O)Nc2nc3ccccc3[nH]2)C(C)C)[C@H](O)[C@H](Cc2ccccc2)NC(=O)[C@@H](NC(=O)OCc2ccccc2)C(C)C)cc1
12,4.27,COc1ccc(CN[C@@H](C(=O)N[C@H](C(=O)NCc2nc3ccccc3[nH]2)C(C)C)[C@H](O)[C@H](Cc2ccccc2)NC(=O)[C@@H](NC(=O)CCc2ccc(O)c(I)c2)C(C)(C)C)cc1
13,26.9,CC(C)[C@H](NC(=O)[C@H](SCc1ccccc1)[C@H](O)[C@H](Cc1ccccc1)NC(=O)OC(C)(C)C)C(=O)NCc1ccccc1
14,53.7,CC(C)(C)[C@H](NC(=O)OCc1ccccc1)C(=O)N[C@@H](Cc1ccccc1)[C@@H](O)[C@@H](NCc1ccc(CNC(=O)CCc2nc3ccccc3[nH]2)cc1)C(=O)NCc1ccccc1
15,3020,COc1ccc(CN[C@@H](C(=O)NCc2ccc(OC)cc2O)[C@H](O)[C@H](Cc2ccccc2)NC(=O)[C@@H](NC(=O)OCc2ccccc2)C(C)C)cc1
16,14.1,COc1ccc(CN[C@@H](C(=O)N[C@H](C(=O)NCCc2ccc(S(N)(=O)=O)cc2)C(C)C)[C@H](O)[C@H](Cc2ccccc2)NC(=O)[C@@H](NC(=O)OCc2ccccc2)C(C)C)cc1
17,15.8,CC(C)[C@H](NC(=O)[C@H](NCc1ccccc1)[C@H](O)[C@H](Cc1ccccc1)NC(=O)[C@@H](NC(=O)OCC1c2ccccc2-c2ccccc21)C(C)(C)C)C(=O)NCc1ccccc1
18,15.8,CC(C)[C@H](NC(=O)[C@H](NCc1ccccc1)[C@H](O)[C@H](Cc1ccccc1)NC(=O)[C@@H](NC(=O)COc1ccccc1)C(C)(C)C)C(=O)NCc1ccccc1

row,SMILES,Ki [nM]
1,CC(=O)NCc1ccc(CN[C@@H](C(=O)N[C@H]2c3ccccc3CC2O)[C@H](O)[C@H](Cc2ccccc2)NC(=O)[C@@H](NC(=O)OCc2ccccc2)C(C)(C)C)cc1 (some centres not stated),5.75
